The values that follow come from patent publication US9765308B2, “Aromatic prenyltransferase from cannabis” (priority 2009, dated 2017).

SMILES strings stand for the structures.

Experiment [1] has as its target T1, CsPT1 (Cannabis sativa, UniProt A0A455ZIK6). Kind of experiment: Prenyltransferase assay of recombinant CsPT1 with different aromatic acceptor substrates, geranyl diphosphate as prenyl donor. The format is biochemical. The note with it: for Product yield (%): yield of prenylated products by HPLC peak area, yield of cannabigerolic acid and 5-geranyl olivetolic acid set to 100%. As to the method: (§1) The prenyltransferase assay for CsPT1 comprised 100 mM Tris-HCl (pH 7.5), 0.2 mM olivetolic acid, 1 mM geranyl diphosphate and 5 mM MgCl2 in a final volume 100 μl. The reaction was initiated by addition of a 5 μl aliquot of microsomal preparation (64 μg protein), either from insect cells or yeast. After incubation for 1 h at 37° C., the reaction was terminated by addition of 10 μl 6 N HCl and extracted twice with 200 μl of ethyl acetate. The organic phase was evaporated to dryness and the residue dissolved in 50 μl of methanol. A 20 μl aliquot was analyzed by HPLC using a Waters 2695 system equipped with photodiode array detector on a Sunfire C18 reversed phase column 3.5 μm (4.6×150 mm) at a column temperature of 30° C. The mobile phase at 1 ml/min consisted of 50% water (containing 0.1% trifluoroacetic acid [TFA] [v/v]) and 50% acetonitrile over 10 min, 50% to 100% acetonitrile over 10 min, 100% acetonitrile to 50% acetonitrile over 1 min, 50% acetonitrile and 50% water over 4 min. The products were detected at 270 nm with photodiode array detection.
The activity of the recombinant CsPT1 was assayed to determine its use of different aromatic acceptor substrates using geranyl diphosphate as the prenyl donor substrate. […] In Table 3, Product yield is the yield of prenylated products as measured by HPLC peak area with the yield of cannabigerolic acid and 5-geranyl olivetolic acid set to 100%. Phlorisovalerophenone has not been detected in cannabis. It has been shown that cannabinoids with short side-chains exist in cannabis (e.g. tetrahydrocannabivarinic acid having a propyl side-chain instead of the pentyl side-chain of THC acid (Shoyama 1984). Given that CsPT1 accepts a variety of aromatic acceptor substrates, this enzyme likely is able to prenylate analogs of olivetolic acid that have differing side-chain length.

In experiment [2] the target is T1, CsPT1. Put plainly: Prenyltransferase assay of recombinant CsPT1 with different prenyl diphosphate donor substrates. It counts as biochemical. Particulars: FIG. 6; n=3. The method, then: FIG. 6 depicts use of different prenyl diphosphate donor substrates by recombinant CsPT1, where DMAPP is dimethylally diphosphate, IPP is isopenetnyl diphosphate, GPP is geranyl diphosphate, NPP is neryl diphosphate, FPP is farnesyl diphosphate, and GGPP is geranylgeranyl diphosphate. Bar represents mean+/− standard deviation (n=3).
as §1, with “detection. […]” for “detection.”

Regarding `O=C(/C=C/c1ccc(O)cc1)c1c(O)cc(O)cc1O` [Chalconaringenin], the “Product yield (%)” value in experiment [1] is 0%.

Regarding `COc1cc(-c2cc(=O)c3c(O)cc(O)cc3o2)ccc1O` [Chrysoeriol], in experiment [1], the “Product yield (%)” value came out at 0%.

Consider `CCCCCC(=O)Cc1cc(O)cc(=O)o1` [Hexanoyl triacetic acid lactone], for which the “Product yield (%)” value in experiment [1] is 0%.

`O=C(O)Cc1cc(O)ccc1O` [Homogentisic acid]: the “Product yield (%)” value in experiment [1] is 0%.

For the molecule `O=c1cc(-c2ccc(O)c(O)c2)oc2cc(O)cc(O)c12` [Luteolin], in experiment [1], the “Product yield (%)” value worked out at 0%.

As to `O=C1C[C@@H](c2ccc(O)cc2)Oc2cc(O)cc(O)c21` [Naringenin], in experiment [1], the “Geranylation of aromatic acceptor substrate by CsPT1” value (“Geranylation” for short) is on record as “geranylated” and the “Product yield (%)” value is on record as 31%.

On to `CCCCCc1cc(O)cc(O)c1` [Olivetol], for which, in experiment [1], the “Geranylation” value was “geranylated” and the “Product yield (%)” value is reported as 30%.

In the case of `CCCCCc1cc(O)cc(O)c1C(=O)O` [Olivetolic acid], in experiment [1], the “Geranylation” value is recorded as “geranylated” and the “Product yield (%)” value turned out to be 100%.

On to `CC(C)CC(=O)c1c(O)cc(O)cc1O` [Phlorisovalerophenone], for which, in experiment [1], the “Geranylation” value is on record as “geranylated” and the “Product yield (%)” value is listed as 250%.

For `Oc1cc(O)cc(O)c1` [Phloroglucinol], the “Product yield (%)” value in experiment [1] is listed as 0%.

For the molecule `Oc1ccc(C=Cc2cc(O)cc(O)c2)cc1` [Resveratrol], in experiment [1], the “Geranylation” value was “geranylated” and the “Product yield (%)” value came out at 32%.

For `CC(C)=CCC/C(C)=C/COP(=O)(O)OP(=O)(O)O` [geranyl diphosphate], the “Use as prenyl donor substrate” value in experiment [2] is recorded as “only used geranyl diphosphate (GPP) as a prenyl donor”.
